Bridge positions count the residues as written; N and C are the ends. Peptide text beside a SMILES is read from it.
Each molecule was assayed against T1, Serine protease 1 (Bos taurus, UniProt P00760) (assay: Inhibition of bovine beta-trypsin incubated for 5 mins using BAPNA as substrate by colorimetric assay).
T1 sequence (P00760 whole entry): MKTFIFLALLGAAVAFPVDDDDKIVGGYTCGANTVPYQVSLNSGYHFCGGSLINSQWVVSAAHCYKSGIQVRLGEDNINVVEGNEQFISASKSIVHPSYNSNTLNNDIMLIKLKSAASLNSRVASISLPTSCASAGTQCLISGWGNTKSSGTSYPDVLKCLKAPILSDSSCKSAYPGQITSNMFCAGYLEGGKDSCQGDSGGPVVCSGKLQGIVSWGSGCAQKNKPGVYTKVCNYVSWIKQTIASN

Ki, 0.02 to 0.03 nM:
CCC(C)[C@@H]1NC(=O)CNC(=O)[C@H](CC(N)=O)NC(=O)[C@H](Cc2ccc(O)cc2)NC(=O)[C@@H]2CSSC[C@@H]3NC(=O)[C@@H]4CCCN4C(=O)[C@H](C(C)CC)NC(=O)[C@H](Cc4ccc(O)cc4)NC(=O)[C@H](C(C)C)NC(=O)[C@@H]4CSSC[C@H](NC(=O)[C@H](CO)NC(=O)[C@H](CSSC[C@H](NC(=O)[C@@H]5CCCN5C1=O)C(=O)N[C@@H](C)C(=O)N[C@@H](CCC(=O)O)C(=O)N[C@@H](CO)C(=O)N4)NC(=O)CNC(=O)[C@H](CC(C)C)NC(=O)[C@H](CC(C)C)NC(=O)[C@H](C)NC(=O)[C@H]([C@@H](C)O)NC(=O)[C@H](C(C)C)NC(=O)[C@H]([C@@H](C)O)NC3=O)C(=O)N[C@@H](CO)C(=O)N[C@@H](CC(N)=O)C(=O)N[C@@H](CCCNC(=N)N)C(=O)N[C@@H](C(C)C)C(=O)N2 (stereo partly drawn)
CC[C@H](C)[C@@H]1NC(=O)[C@H](C)NC(=O)[C@H](CO)NC(=O)[C@H](CO)NC(=O)[C@H]([C@@H](C)CC)NC(=O)[C@@H]2CSSC[C@@H]3NC(=O)[C@H](C(C)C)NC(=O)[C@H](CCCCN)NC(=O)[C@H](CO)NC(=O)[C@H](CCCCN)NC(=O)[C@@H]4CSSC[C@H](NC(=O)[C@H](CO)NC(=O)[C@H](CCC(=O)O)NC(=O)CNC(=O)[C@H](CSSC[C@H](NC(=O)CNC1=O)C(=O)N[C@@H](CO)C(=O)N4)NC(=O)[C@@H]1CCCN1C(=O)[C@H]([C@@H](C)CC)NC(=O)CNC(=O)[C@H](CC(N)=O)NC(=O)[C@H](CCCNC(=N)N)NC(=O)[C@H](Cc1ccc(O)cc1)NC3=O)C(=O)N[C@@H](C(C)C)C(=O)N[C@@H](Cc1c[nH]c3ccccc13)C(=O)N[C@@H]([C@@H](C)CC)C(=O)N1CCC[C@H]1C(=O)N2 (cyclo(AIGCSCKSKVCYRNGIPCGESCVWIPCISS); disulfide 4-18, 6-22, 11-27)
CC[C@H](C)[C@@H]1NC(=O)[C@@H]2CCCN2C(=O)[C@H](Cc2c[nH]c3ccccc23)NC(=O)[C@H]([C@@H](C)O)NC(=O)[C@@H]2CSSC[C@@H]3NC(=O)[C@H]([C@@H](C)O)NC(=O)[C@H](CCC(=O)O)NC(=O)CNC(=O)[C@@H]4CSSC[C@H](NC(=O)CNC(=O)[C@@H]5CCCN5C(=O)[C@H]([C@@H](C)O)NC(=O)[C@H](CC(N)=O)NC(=O)[C@H](CSSC[C@H](NC1=O)C(=O)N[C@@H]([C@@H](C)O)C(=O)N[C@@H](CCCNC(=N)N)C(=O)N[C@@H](CC(=O)O)C(=O)NCC(=O)N[C@@H](CC(C)C)C(=O)N1CCC[C@H]1C(=O)N[C@@H](C(C)C)C(=O)N4)NC(=O)[C@H]([C@@H](C)O)NC(=O)CNC(=O)CNC(=O)[C@H](Cc1ccccc1)NC3=O)C(=O)N[C@@H](CO)C(=O)N2 (cyclo(CFGGTCNTPGCSCTWPICTRDGLPVCGET); disulfide 1-13, 6-18, 11-26)
